These results are taken from US12082918B2, “Preparation for magnetic resonance diagnostics for oncological diseases, comprising deuterated 2-amino-2-methylpropionic acid and/or 2-(N-methylamino)-2-methylpropionic acid, and diagnostic method using said preparation” (SOLVEX LIMITED LIABILITY COMPANY, priority 2017, dated 2024).

The subject of data set [1] is carcinoma of the breast 4T1. The data set is described as follows: 2H MRI visualisation of 4T1 breast carcinoma in mice in vivo. The arrangement: species or system mice Balb/c. As for the experimental part:
(§1) In the examples below, the MRI scanner Bruker BioSpec BC70/30 USR with the constant field of 7.05 T, equipped with a surface transmitting-and-receiving coil with a diameter of 3 cm and a scan depth of ca. 1 cm was used.
(§2) To register deuterium image the FLASH (Fast low angle shot) pulse sequence was used.
(§3) For experiments with the broadband excitation the following settings were used: the excitation frequency was determined by ^2H NMR spectrum and was sfo1≈46.1745 MHz, a rectangular excitation pulse with a width of 1300 Hz and a power of 36 dB, the flip angle FA=30°, the time TR=11.8 MS, echo time TE=4.4 msec, a scan area of 10 cm×10 cm, scan matrix, 50×50, slice thickness 3 cm, bandwidth of 12500 Hz, total scan time 10 minutes (1030 averages).
For experiments with selective excitation the following settings were used: excitation frequency sfo1=46.1745 MHz, a rectangular excitation pulse with a width of 130 Hz and a power of 48 dB, the flip angle FA=30°, the repetition time TR=25 MS, echo time TE=10 MS, a scanning area of 10 cm×10 cm, scan matrix 50×50, slice thickness 3 cm, bandwidth of 25,000 Hz, total scan time 10 minutes.
In this example, experiments were conducted on mice Balb/c inoculated with carcinoma of the breast 4T1 (injection of 5×10^5 cells/60 μl under the left front paw for 10 days before experiment) and in healthy Balb/c mice.
An animal no. 1-5 weighing 20 g was injected intraperitoneally with a solution of 20 mg of 2-amino-2-(CD3)-3,3,3-D3-propionic acid in 0.5 ml of a saline solution. An animal no. […] weighing 20 g was injected intraperitoneally with a solution of 10 mg (mouse no. 4) or 5 mg (mouse no. 5) 2-amino-2-(CD3)-3,3,3-D3-propionic acid in 0.25 ml of a saline solution. After injection, the animal was kept in a separate cage for a specified time (no. 1 with the tumor and no. 2 without the tumor: 40 min; no. 3 with the tumor: 115 min; no. 4 with the tumor: 20 and 360 min; no. 5 and no. 6 with the tumor: 30 min). To register the MR images and spectra an animal was immobilized with isoflurane. The surface transmitting-and-receiving coil was fixed on the body of the mouse on the dorsal side sequentially in two positions (thoracic, kidneys). The FIGS. 3-7 show ^2H MR images obtained with the use of the broadband excitation of the deuterium nuclei.

In the next data set the test system is C6 glioma. As to the kind of experiment: 2H MRI visualisation of glioma C6 in rats in vivo. More on the design: species or system Wistar rats. As to conditions: 4 hours after 150 mg i.p. As for the experimental part:
as §1, §2, §3
In this example, experiments were conducted on Wistar rats inoculated with C6 glioma and in healthy Wistar rats.
An animal with the weight of 210 g was injected intraperitoneally a solution of 150 mg of 2-amino-2-(CD3)-3,3,3-D3-propionic acid in 1.5 ml of a saline solution. After injection, the animal was kept in a separate cage with free access to food and water. To register the MR images and spectra an animal was immobilized with isoflurane. The surface transmitting-and-receiving coil was fixed over the head of the rat.

Data set [2] deals with carcinoma of the breast 4T1. The data set is described as follows: 2H MRI visualisation of 4T1 breast carcinoma in mice in vivo. The arrangement: species or system mice Balb/c. The source holds these as a separate data set.

`[2H]C([2H])([2H])C(N)(C(=O)O)C([2H])([2H])[2H]` [2-amino-2-(CD3)-3,3,3-D3-propionic acid]: the “localization of the deuterium signal (2H MRI)” value was “localized in the region corresponding to the liver” in data set [1] (control mouse no. 2 without the tumor, 40 min after 20 mg i.p.); “localized in the region corresponding to the tumor” in data set [1] (mouse no. 1 with tumor, 40 min after 20 mg i.p.); “localized in the region corresponding to the tumor and in the area corresponding to the liver” in data set [1] (mouse no. 3 with tumor, 115 min after 20 mg i.p.); “localized in the region corresponding to the tumor” in the data set with C6 glioma (rat with C6 glioma); “does not show a clear localization” in the data set with C6 glioma (rats without tumors); “localized in the region corresponding to the most recently developed and actively growing parts of the tumor, and also in the area corresponding to the liver” in data set [2] (mouse no. 4 with tumor, 20 min after 20 mg i.p.). For the same compound, the “localization of the deuterium signal (2H MRI)” value in data set [2] (mouse no. 4 with tumor, 360 min after 20 mg i.p.) was “localized in the region corresponding to the most recently developed and actively growing parts of the tumor”; in data set [2] (mouse no. 5 with tumor, 30 min after 10 mg i.p.), “localized in the region corresponding to individual parts of the tumor”; in data set [2] (mouse no. 6 with tumor, 30 min after 5 mg i.p.) it was “localized in the region corresponding to individual parts of the tumor”. The “allowable time range between administration and detection of deuterium” value in data set [1] (mice with 4T1 tumor, 20 mg i.p., FIGS. 3, 5, 7 and 8) was 20 to 360 min. Moreover, in data set [1] (mouse no. 1, 40 min after 20 mg i.p., broadband excitation), the “signal/noise ratio in the kidneys” value is “approximately 25”. Also, the “signal/noise ratio in the region of the tumor” value in data set [1] (mouse no. 1 with tumor, 40 min after 20 mg i.p., broadband excitation) is “approximately 6”; in data set [1] (mouse no. 1 with tumor, 40 min after 20 mg i.p., selective excitation), “about 4”. Also, the “visibility of excised tumor on deuterium MR image” value in data set [1] (tumors excised from mouse no. 3, 150 min after injection of 20 mg) is on record as “clearly visible on deuterium MR image”.
